Source: patent US20020168365A1, “Method for modulating granzyme B uptake and for identifying modulators thereof” (priority 2000, published 2002)

How the values were obtained:
[1] = system: breast carcinoma cell lines (T47-D, MDA-MB-231, SK-BR-3, MCF-7); experiment: grB/AD-mediated apoptosis (TUNEL, annexin V) in carcinoma cell lines; type: cell-based, human
Protocol: Cells were resuspended at 10^6 cells/ml in 0.1% BSA/DMEM. Adenovirus (10 PFU/cell) and granzyme B (grB) were added directly to the cell suspension. Cells were incubated at 37° C. for 3 h. For staurosporine killing, cells were resuspended at 10^6 cells/ml in their normal growth medium and staurosporine (2.5 μM) was added directly to the cell suspension. Cells were incubated at 37° C. for 2, 4 and 8 h. DNA fragmentation was monitored by flow cytometric analysis via the terminal deoxynucleotidyltransferase-mediated dUTP-biotin nick end labeling (TUNEL) method. Flow cytometric analysis was performed on a Becton Dickinson FACScanθ flow cytometer equipped with an argon-ion laser with 15 mW of excitation at 488 nm. Emission wavelengths were detected through the FL1 channel. Data were acquired on 10,000 cells per sample with light scatter signals at linear gain and fluorescence signals at logarithmic gain. Percent specific TUNEL positive cells was calculated as follows: [(% positive labeling cells with grB and AD−% positive labeling cells without grB and AD)/(AD−% positive labeling cells without grB and AD)]×100. Phosphatidylserine externalization was monitored using the ApoAlertθ annexin V apoptosis kit (Clontech) according to the protocol provided by the manufacturer. Flow cytometric analysis was performed on a Becton Dickinson FACScanθ flow cytometer equipped with an argon-ion laser with 15 mW of excitation at 488 nm. Emission wavelengths were detected through the FL1 channel. Data were acquired on 10,000 cells per sample with light scatter signals at linear gain and fluorescence signals at logarithmic gain. Percent specific Annexin V positive cells was calculated as follows: [(% positive labeling cells with grB and AD−% positive labeling cells without grB and AD)/(AD−% positive labeling cells without grB and AD)]×100.

[2] = system: procaspase-3; experiment: Caspase 3 cleavage by Western blotting; type: cell-based, human; settings: grB (18 nM) and AD, 3 hr
Protocol: Cells were resuspended at 10^6 cells/ml in 0.1% BSA/DMEM. Adenovirus (10 PFU/cell) and granzyme B (grB) were added directly to the cell suspension. Cells were incubated at 37° C. for 3 h. For staurosporine killing, cells were resuspended at 10^6 cells/ml in their normal growth medium and staurosporine (2.5 μM) was added directly to the cell suspension. Cells were incubated at 37° C. for 2, 4 and 8 h. Cellular lysates were collected by directly harvesting 10^5 cells into 100 μl of sodium dodecyl sulfate-polyacrylamide gel electrophoresis (SDS-PAGE) gel loading buffer and subjected to SDS-PAGE analysis. Proteins were transferred to nitrocellulose (Micron Separations Inc.) by using a semidry transfer apparatus (Tyler Corp.) for 1 h at 150 mA. Membranes were blocked in phosphate-buffered saline (PBS) containing 0.1% Tween 20 (ICN Biomedicals Inc.) and 5% skim milk for 16 h. Caspase 3 was detected using polyclonal rabbit anti-caspase 3 at a dilution of 1:10,000. The membrane was incubated with the primary antibody for 2 h, after which the blot was washed three times in PBS containing 0.1% Tween 20. The membranes were probed with a horseradish peroxidase-conjugated goat anti-rabbit secondary antibody (Bio-Rad Laboratories) at a 1:20,000 dilution. Transferred proteins were visualized with a chemiluminescence detection system (Amersham Inc.).

[3] = all the carcinoma cell lines, 3 hr

## grB: Human serine proteinase granzyme B purified from the cytolytic granules of YT-Indy cells
[1]; MCF-7 cells, granzyme B and adenovirus
  DNA fragmentation or phosphatidylserine externalization: no DNA-fragmentation or phosphatidylserine externalization could be detected
[1]; T47-D cells, granzyme B and adenovirus
  phosphatidylserine exposure or DNA fragmentation: unable to detect any phosphatidylserine exposure or DNA fragmentation
[1]; [3]
  annexin V binding after grB and AD: did not bind annexin V
  grB and AD-mediated DNA fragmentation: resistant
[2]; Jurkat cells
  cleavage of procaspase-3: able to observe cleavage
[2]; MDA-MB-231 cells
  cleavage of procaspase-3: unable to observe any cleavage
[2]; SK-BR-3 cells
  cleavage of procaspase-3: unable to observe any cleavage
[2]; T47-D cells
  cleavage of procaspase-3: able to observe cleavage
